Eight molecules from PubChem BioAssay (NCI) can be followed below.

Molecules are shown by their SMILES.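 Protocol summary: plate cells (96-well), add compound at 5 concentrations, incubate 48 h, interpolate endpoints linearly. GI50: concentration for 50% inhibition of growth. TGI denotes the concentration required for complete inhibition of growth.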

Holding throughout (experiment): NCI tumour cell line growth inhibition, 48 h
Experiment [1] has as its system HL-60(TB) leukemia.
The subject of experiment [2] is A549 NSCLC.
In experiment [3] the test system is HS 578T breast.
Experiment [4] has as its system HCT-15 colon.
Experiment [5] relates to NCI/ADR-RES ovarian.
For experiment [6], the system named is BT-549 breast.
Experiment [7] relates to OVCAR-8 ovarian.
The subject of experiment [8] is HOP-92 NSCLC.
Experiment [9] concerns OVCAR-4 ovarian.
Experiment [10] has as its system RXF 393 renal.

With `CC[C@]12C=CCN3CC[C@@]4(c5ccc(OC)cc5N(C)[C@H]4[C@@](O)(C(=O)OC)[C@@H]1OC(=O)CCC(=O)O[C@H]1CC[C@H]4[C@@H]5CC[C@H]6CC(=O)CC[C@]6(C)[C@H]5CC[C@]14C)[C@@H]32`, the GI50 in experiment [1] is 2.12 µM; in experiment [2] it was 4.19 µM; in experiment [3], 3.65 µM; in experiment [4], 2.44 µM; in experiment [5], 2.91 µM; in experiment [6] it was 2.21 µM. For the same molecule, the GI50 in experiment [7] was 5.84 µM; in [8], 1.83 µM; in [9], 2.58 µM; in [10], 2.31 µM. Besides, the TGI in [1] is 5.36 µM; in experiment [2], 35.3 µM; in experiment [3], above 100 µM; in [4], above 100 µM; in [5], above 100 µM; in experiment [6], above 100 µM. In addition, the TGI in [7] was above 100 µM; in experiment [8], 9.72 µM; in experiment [9], above 100 µM; in [10] it was 6.73 µM.

For `Cc1ccc2[nH]c(O)c(N=Nc3ccccc3[N+](=O)[O-])c2c1`, the TGI in [1] was above 100 µM; in experiment [2], above 100 µM; in experiment [3] it was 28.9 µM; in experiment [4], above 100 µM; in experiment [5], above 40.2 µM; in [6], above 94.3 µM. Moreover, the TGI is above 33.9 µM in experiment [7], 6.55 µM in [8], 6.18 µM in experiment [9] and 20.8 µM in [10].

On to `CN(/N=C/c1ccccc1O)c1ccc2ccccc2n1`, for which the TGI was above 100 µM in [1]; 29.8 µM in experiment [2]; 72.8 µM in experiment [3]; above 100 µM in experiment [4]; above 100 µM in experiment [5]; 61.1 µM in [6]. For the same molecule, the TGI is above 100 µM in [7], above 100 µM in experiment [8], 67.7 µM in experiment [9] and 90 µM in experiment [10].

Take `COC(=O)C1=C(C(=O)ON)[C@@H]2C=C[C@@]1([C@@H](Cc1ccccc1)Nc1ccccc1)O2`: the GI50 in experiment [1] is 1.45 µM; in experiment [2], 16.9 µM; in [3] it was 19.5 µM; in [4] it was 1.76 µM; in [5], 17.4 µM; in experiment [6], 7.06 µM. Further, the GI50 is 14.4 µM in experiment [7], 1.5 µM in experiment [8], 1.62 µM in experiment [9] and 1.67 µM in experiment [10]. In addition, the TGI in experiment [1] was found to be 6.18 µM; in experiment [2] it was 32.2 µM; in [3] it was 68.7 µM; in [4], 4.1 µM; in experiment [5], 35.9 µM; in experiment [6], 19.6 µM. Also, the TGI in experiment [7] was determined as 27.9 µM; in experiment [8] it was 2.88 µM; in experiment [9], 3.04 µM; in experiment [10], 3.04 µM.

As for `O=S(=O)(O)n1ccnc1` (tested in a mixture with another compound), the TGI in experiment [1], in experiment [2], in experiment [3], in experiment [4], in experiment [5] and in experiment [6] was above 100 µM in each case. The TGI in experiment [7], in experiment [8], in [9] and in experiment [10] was above 100 µM throughout.

Turning to `COc1ccc(C2CC(c3ccc(OC)cc3O)=NN2c2ccc(S(N)(=O)=O)cc2)cc1` (stereo not given), the GI50 in [1] is 11.9 µM; in experiment [2], 6.36 µM; in experiment [3], 8.22 µM; in experiment [4] it was 5.98 µM; in [5] it was 8.09 µM; in [6] it was 13.5 µM. Moreover, the GI50 in experiment [7] is 24.1 µM; in [8], 3.27 µM; in experiment [9] it was 30.8 µM; in experiment [10], 25.6 µM. In addition, the TGI was 47.9 µM in experiment [1]; above 100 µM in experiment [2]; 98.9 µM in [3]; above 100 µM in experiment [4]; above 100 µM in [5]; 57.2 µM in experiment [6]. The TGI in experiment [7] is above 100 µM; in experiment [8], 32.8 µM; in experiment [9], above 100 µM; in experiment [10], above 100 µM.

In the case of `O=C(Nc1n[nH]c2nc(-c3ccc(O)cc3)c(Br)cc12)C1CC1`, the GI50 in [1] is 2.79 µM; in [2], 4.98 µM; in [3] it was 4.15 µM; in experiment [4], 3.77 µM; in experiment [5] it was 6.49 µM; in experiment [6], 5.78 µM. The GI50 is 4.71 µM in experiment [7], 8.66 µM in [8], 5.17 µM in experiment [9] and 1.18 µM in experiment [10]. The TGI in experiment [1] was 15.4 µM; in experiment [2], above 21.7 µM; in [3] it was 21.6 µM; in [4] it was above 23.2 µM; in [5], above 25 µM; in [6], 19.8 µM. Also, the TGI in [7] was above 22.1 µM; in [8], 18.3 µM; in experiment [9], 14.4 µM; in experiment [10], 5.02 µM.

For the molecule `Cc1c[nH]c(=O)n(Cc2nnc(CCC(=O)c3nc4ccccc4[nH]3)o2)c1=O`, the GI50 is 0.966 µM in [1]; 0.475 µM in experiment [2]; 0.285 µM in experiment [3]; 8.93 µM in experiment [4]; 14.7 µM in [5]; 0.717 µM in experiment [6]. In addition, the GI50 in [7] was 0.661 µM; in experiment [8], 1.44 µM; in experiment [9] it was 0.629 µM; in [10] it was 0.697 µM. Moreover, the TGI in experiment [1] is above 100 µM; in [2], above 100 µM; in experiment [3] it was 2.3 µM; in experiment [4], above 100 µM; in [5], 63.8 µM; in [6], 48.7 µM. Besides, the TGI is above 100 µM in [7], above 100 µM in [8], above 100 µM in [9] and 3.83 µM in experiment [10].
